Data on six compounds can be found in US20090042240A1, “RAPID DETECTION OF ANTIMICROBIAL DRUG RESIDUES” (priority 2006, published 2009).

The conditions of data set [1]: cited from earlier work; for Lowest official MRL: official Maximum Residue Limit, unit assumed; for MRL: MRL stated by the European Community.
Data set [2] relates to Escherichia coli. As to conditions: additional study 1997; microorganism frozen in skimmed milk, cells washed with saline; cited from earlier work.
The test system of data set [3] is Escherichia coli ATCC 11303. As to conditions: milk; Escherichia coli ATCC 11303 frozen in 10% glycerol; cited from earlier work.
The test system of data set [4] is Escherichia coli strains. As to conditions: Choi et al. 1999, animal tissues; cited from earlier work.
Data set [5] concerns Escherichia coli strain ATCC 11303. The data set is described as follows: Liquid based microbial screening test for quinolones (Example 2). The data set is classed as cell-based. As to conditions: spiked demineralized water, 100 μl sample, 37° C., 4 hours and 45 minutes, colour change purple to yellow. As for the experimental part: In this experiment a liquid based microbial screenings test for the detection of quinolones is described. The quinolone medium used in this experiment is prepared by dissolving the following compounds in 1 liter of demineralized water: • 8.5 gram of Plate Count Broth (PCB) (Difco, cat. no: 275120); • 20 gram of NaCl (Merck, cat. no: 106404); • 0.042 gram of Bromocresol purple (Merck, cat. no: 103025). Escherichia coli strain ATCC 11303 was grown using well-known methods. The test medium was prepared by adding Escherichia coli cells to the quinolone medium to a final concentration of approximately 10^5 cells/ml. The test was prepared by addition of 250 μl of medium containing the test organism in each test ampoule. Spiked samples were prepared by adding different concentrations of the quinolones described in Table 1 to demineralized water. 100 μl of the spiked sample was added to the test ampoule, a negative control (water without quinolones) was included. The tests were incubated at 37° C. for 4 hours and 45 minutes. The tests were read at the time the test incubated with the negative control sample (water without quinolones) changed color from purple to yellow.

Data set [6] has the same test system. The data set is described as follows: Detection of quinolones in chicken muscle by solvent extraction, then liquid test (Example 7). The data set is classed as cell-based. To be noted: acetonitrile/acetone extraction. Here is the method:
Escherichia coli strain ATCC 11303 was grown using well-known methods. The test medium was prepared by adding Escherichia coli cells to the quinolone medium to a final concentration of approximately 10^5 cells/ml. The test was prepared by addition of 250 μl of medium containing the test organism in each test ampoule. Spiked samples were prepared by adding different concentrations of the quinolones described in Table 1 to demineralized water. 100 μl of the spiked sample was added to the test ampoule, a negative control (water without quinolones) was included. The tests were incubated at 37° C. for 4 hours and 45 minutes. The tests were read at the time the test incubated with the negative control sample (water without quinolones) changed color from purple to yellow. In this experiment a mixture of acetonitrile/acetone is used to extract antimicrobial compounds out of the sample, further the experiment is executed as described in Example 2. The sample is obtained as follows: • 1. Weigh out 4 g (±0.03) of sample into a 50 ml plastic disposable centrifuge tube; • 2. Add 10 ml acetonitrile/acetone 70:30 (v/v); • 3. […] Homogenize for 30-40 seconds using an Ultra Turrax; • 5. Place in an ultrasonic bath for 5-10 minutes, then vortex mix for 30-40 seconds; • 6. Centrifuge for 10-12 minutes at 4200 G at 4° C.; • 7. […]

For data set [7] the following is noted: agar diffusion, Tsai and Kondo 2001; cited from earlier work. (A growth-free zone around the sample is the usual read-out of agar diffusion tests.)

On to `CN1C[C@@H]2C[C@H]1CN2c1cc2c(cc1F)c(=O)c(C(=O)O)cn2C1CC1` [Danofloxacin], for which the Lowest official MRL in data set [1] was 30 µg/kg. Besides, the sensitivity in data set [2] is recorded as 8 ppb.

With `CCN1CCN(c2cc3c(cc2F)c(=O)c(C(=O)O)cn3C2CC2)CC1` [Enrofloxacin], the results for the sensitivity in data set [3] and in data set [2] were 2 ppb and 6 ppb, respectively. Moreover, in data set [4], the detection limit is listed as 50 ppb.

In the case of `CC1CCc2cc(F)cc3c(=O)c(C(=O)O)cn1c23` (centres unmarked) [Flumequin], the Detection level in data set [5] turned out to be 100. In data set [1], the Lowest official MRL was 400 µg/kg. Further, the concentration detected in data set [6] stood at 10 µg/kg.

For the compound `CCn1cc(C(=O)O)c(=O)c2cc3c(cc21)OCO3` [Oxolinic acid], the sensitivity in data set [7] was 200 ppb. Besides, the Lowest official MRL in data set [1] is 100 µg/kg. The compound further returned a concentration detected in data set [6] of 10 µg/kg.

`O=C(O)c1cn(-c2ccc(F)cc2)c2cc(N3CCNCC3)c(F)cc2c1=O` [Sarafloxacin]: in data set [1], the MRL is given as 100 ppb and the Lowest official MRL is 10 µg/kg. The sensitivity in data set [2] is given as 15 ppb. Further, the detection limit in data set [4] was 250 ppb.

Consider `CN1CCN(c2cc3c(cc2F)c(=O)c(C(=O)O)cn3-c2ccc(F)cc2)CC1` [difloxacin], for which the MRL in data set [1] is 10 ppb. Also, the detection limit in data set [4] is on record as 250 ppb.
